# Assay results published in patent US10597388B2, “Pyridazinone herbicides” (FMC CORPORATION, priority 2014, dated 2020).
# Assays:
# Assay in all cases: Test D controlled growth environment herbicide test, pre- and postemergence
# Assay type in all cases: in vivo
# [1] = test system: blackgrass (Alopecurus myosuroides)
# Text: (§1) Seeds of plant species selected from bluegrass (annual bluegrass, Poa annua), blackgrass (Alopecurus myosuroides), Canada thistle (Cirsium arvense), canarygrass (Phalaris minor), chickweed (common chickweed, Stellaria media), geranium, cutleaf (cutleaf geranium, Geranium dissectum), galium (catchweed bedstraw, Galium aparine), bromegrass, downy (downy bromegrass, Bromus tectorum), field poppy (Papaver rhoeas), field violet (Viola arvensis), foxtail, green (green foxtail, Setaria viridis), deadnettle (henbit deadnettle, Lamium amplexicaule), ryegrass, Italian (Italian ryegrass, Lolium multiflorum), kochia (Kochia scoparia), lambsquarters (Chenopodium album), oilseed rape (Brassica napus), pigweed (Amaranthus retroflexus), chamomile (scentless chamomile, Matricaria inodora), Russian thistle (Salsola kali), speedwell (bird's-eye speedwell, Veronica persica), barley, spring (spring barley, Hordeum vulgare), wheat, spring (spring wheat, Triticum aestivum), buckwheat, wild (wild buckwheat, Polygonum convolvulus), mustard, wild (wild mustard, Sinapis arvensis), oat, wild (wild oat, Avena fatua), radish, wild (wild radish, Raphanus raphanistrum), windgrass (Apera spica-venti), barley, winter (winter barley, Hordeum vulgare), and wheat, winter (winter wheat, Triticum aestivum) were planted into a silt loam soil and treated preemergence with test chemicals formulated in a non-phytotoxic solvent mixture which included a surfactant.
# (§2) At the same time, these species were planted in pots containing Redi-Earth® planting medium (Scotts Company, 14111 Scottslawn Road, Marysville, Ohio 43041) comprising spaghnum peat moss, vermiculite, wetting agent and starter nutrients and treated with postemergence applications of the test chemicals formulated in the same manner. Plants ranged in height from 2 to 18 cm (1- to 4-leaf stage). Treated plants and controls were maintained in a controlled growth environment for 14 to 21 d after which time all species were compared to controls and visually evaluated. Plant response ratings, summarized in Table D, are based on a scale of 0 to 100 where 0 is no effect and 100 is complete control. A dash (-) response means no test result.
# [2] = test system: canarygrass (Phalaris minor)
# Text: as §1, §2
# [3] = test system: chickweed (common chickweed, Stellaria media)
# Text: as §1, §2
# [4] = test system: deadnettle (henbit deadnettle, Lamium amplexicaule)
# Text: as §1, §2
# [5] = test system: field violet (Viola arvensis)
# Text: as §1, §2
# [6] = test system: foxtail, green (green foxtail, Setaria viridis)
# Text: as §1, §2
# kochia (Kochia scoparia) = test system: kochia (Kochia scoparia)
# Text: as §1, §2
# [7] = test system: lambsquarters (Chenopodium album)
# Text: as §1, §2
# [8] = test system: ryegrass, Italian (Italian ryegrass, Lolium multiflorum)
# Text: as §1, §2
# [9] = test system: wheat, spring (spring wheat, Triticum aestivum)
# Text: as §1, §2
# [10] = test system: wheat, winter (winter wheat, Triticum aestivum)
# Text: as §1, §2
# [11] = test system: windgrass (Apera spica-venti)
# Text: as §1, §2
# [12] = Postemergence, 31 g ai/ha, scale 0 to 100 (0 no effect, 100 complete control)
# [13] = Postemergence, 125 g ai/ha, visual rating on scale 0 (no effect) to 100 (complete control), 14 to 21 d
# [14] = Postemergence, 250 g ai/ha, scale 0 to 100 (0 no effect, 100 complete control)
# [15] = Preemergence, 62 g ai/ha, scale 0 to 100 (0 no effect, 100 complete control)
# [16] = Preemergence, 125 g ai/ha, scale 0 to 100 (0 no effect, 100 complete control)
# [17] = Preemergence, 250 g ai/ha, scale 0 to 100 (0 no effect, 100 complete control)
# [18] = postemergence, 62 g ai/ha, scale 0 to 100, 0 no effect, 100 complete control
smiles,measurement,setting,value
"Cc1ccc2sc(C)c(-c3c(O)c(C)nn(C)c3=O)c2c1 [Compound 1, 4-(2,5-dimethylbenzo[b]thien-3-yl)-5-hydroxy-2,6-dimethyl-3(2H)-pyridazinone]",Blackgrass plant response rating,[1]; [12],40
same,"Plant response rating, Blackgrass",[1]; [13],70
same,"Plant response rating, Blackgrass",[1]; [14],80
same,"Plant response rating (scale of 0 to 100), Blackgrass","[1]; Preemergence, 31 g ai/ha",35
same,"Plant response rating, Blackgrass",[1]; [15],70
same,"Plant response rating, Blackgrass",[1]; [16],85
same,Blackgrass plant response rating,[1]; [17],90
same,"Plant response rating, Blackgrass",[1]; [18],50
same,Canarygrass plant response rating,[2]; [12],20
same,"Plant response rating, Canarygrass",[2]; [13],50
same,"Plant response rating, Canarygrass",[2]; [14],70
same,"Plant response rating (scale of 0 to 100), Canarygrass","[2]; Preemergence, 31 g ai/ha",40
same,"Plant response rating, Canarygrass",[2]; [15],60
same,"Plant response rating, Canarygrass",[2]; [16],85
same,"Plant response rating, Canarygrass",[2]; [17],90
same,"Plant response rating, Canarygrass",[2]; [18],35
same,Chickweed plant response rating,[3]; [12],80
same,"Plant response rating, Chickweed",[3]; [13],90
same,"Plant response rating, Chickweed",[3]; [14],100
same,"Plant response rating (scale of 0 to 100), Chickweed","[3]; Preemergence, 31 g ai/ha",100
same,"Plant response rating, Chickweed",[3]; [15],90
same,"Plant response rating, Chickweed",[3]; [16],100
same,"Plant response rating, Chickweed",[3]; [17],100
same,"Plant response rating, Chickweed",[3]; [18],80
same,Deadnettle plant response rating,[4]; [12],35
same,"Plant response rating, Deadnettle",[4]; [13],35
same,"Plant response rating, Deadnettle",[4]; [14],70
same,"Plant response rating (scale of 0 to 100), Deadnettle","[4]; Preemergence, 31 g ai/ha",0
same,"Plant response rating, Deadnettle",[4]; [15],0
same,"Plant response rating, Deadnettle",[4]; [16],0
same,"Plant response rating, Deadnettle",[4]; [17],60
same,"Plant response rating, Deadnettle",[4]; [18],35
same,Field Violet plant response rating,[5]; [12],85
same,"Plant response rating, Field Violet",[5]; [13],90
same,"Plant response rating, Field Violet",[5]; [14],95
same,"Plant response rating (scale of 0 to 100), Field Violet","[5]; Preemergence, 31 g ai/ha",95
same,"Plant response rating, Field Violet",[5]; [15],100
same,"Plant response rating, Field Violet",[5]; [16],100
same,"Plant response rating, Field Violet",[5]; [17],100
same,"Plant response rating, Field Violet",[5]; [18],75
same,"Foxtail, Green plant response rating",[6]; [12],50
same,"Plant response rating, Foxtail, Green",[6]; [13],75
same,"Plant response rating, Foxtail, Green",[6]; [14],85
same,"Plant response rating (scale of 0 to 100), Foxtail, Green","[6]; Preemergence, 31 g ai/ha",10
same,"Plant response rating, Foxtail, Green",[6]; [15],15
same,"Plant response rating, Foxtail, Green",[6]; [16],75
same,"Plant response rating, Foxtail, Green",[6]; [17],100
same,"Plant response rating, Foxtail, Green",[6]; [18],65
same,Kochia plant response rating,kochia (Kochia scoparia); [12],70
same,"Plant response rating, Kochia",kochia (Kochia scoparia); [13],95
same,"Plant response rating, Kochia",kochia (Kochia scoparia); [14],100
same,"Plant response rating (scale of 0 to 100), Kochia","kochia (Kochia scoparia); Preemergence, 31 g ai/ha",0
same,"Plant response rating, Kochia",kochia (Kochia scoparia); [15],0
same,"Plant response rating, Kochia",kochia (Kochia scoparia); [16],35
same,"Plant response rating, Kochia",kochia (Kochia scoparia); [17],75
same,"Plant response rating, Kochia",kochia (Kochia scoparia); [18],85
same,Lambsquarters plant response rating,[7]; [12],75
same,"Plant response rating, Lambsquarters",[7]; [13],90
same,"Plant response rating, Lambsquarters",[7]; [14],100
same,"Plant response rating (scale of 0 to 100), Lambsquarters","[7]; Preemergence, 31 g ai/ha",20
same,"Plant response rating, Lambsquarters",[7]; [15],100
same,"Plant response rating, Lambsquarters",[7]; [16],100
same,"Plant response rating, Lambsquarters",[7]; [17],100
same,"Plant response rating, Lambsquarters",[7]; [18],90
same,"Ryegrass, Italian plant response rating",[8]; [12],65
same,"Plant response rating, Ryegrass, Italian",[8]; [13],85
same,"Plant response rating, Ryegrass, Italian",[8]; [14],85
same,"Plant response rating (scale of 0 to 100), Ryegrass, Italian","[8]; Preemergence, 31 g ai/ha",100
same,"Plant response rating, Ryegrass, Italian",[8]; [15],100
same,"Plant response rating, Ryegrass, Italian",[8]; [16],100
same,"Plant response rating, Ryegrass, Italian",[8]; [17],100
same,"Plant response rating, Ryegrass, Italian",[8]; [18],75
same,"Wheat, Spring plant response rating",[9]; [12],0
same,"Plant response rating, Wheat, Spring",[9]; [13],10
same,"Plant response rating, Wheat, Spring",[9]; [14],15
same,"Plant response rating (scale of 0 to 100), Wheat, Spring","[9]; Preemergence, 31 g ai/ha",0
same,"Plant response rating, Wheat, Spring",[9]; [15],0
same,"Plant response rating, Wheat, Spring",[9]; [16],0
same,"Plant response rating, Wheat, Spring",[9]; [17],10
same,"Plant response rating, Wheat, Spring",[9]; [18],0
same,"Wheat, Winter plant response rating",[10]; [12],0
same,"Plant response rating, Wheat, Winter",[10]; [13],0
same,"Plant response rating, Wheat, Winter",[10]; [14],5
same,"Plant response rating (scale of 0 to 100), Wheat, Winter","[10]; Preemergence, 31 g ai/ha",0
same,"Plant response rating, Wheat, Winter",[10]; [15],0
same,"Plant response rating, Wheat, Winter",[10]; [16],5
same,"Plant response rating, Wheat, Winter",[10]; [17],5
same,"Plant response rating, Wheat, Winter",[10]; [18],0
same,Windgrass plant response rating,[11]; [12],10
same,"Plant response rating, Windgrass",[11]; [13],50
same,"Plant response rating, Windgrass",[11]; [14],70
same,"Plant response rating (scale of 0 to 100), Windgrass","[11]; Preemergence, 31 g ai/ha",15
same,"Plant response rating, Windgrass",[11]; [15],60
same,"Plant response rating, Windgrass",[11]; [16],85
same,"Plant response rating, Windgrass",[11]; [17],100
same,"Plant response rating, Windgrass",[11]; [18],25
